US5773644A, “Cyclopropyl alkanoic acid derivatives” (G. D. Searle & Co., priority 1997, dated 1998)
Structures can show the parent of a compound that is named as a salt. Where two headings read alike, the source gives them in different places.

Experiments:
[1] = biological target: T1, Human vitronectin receptor (αv β3) (Homo sapiens, UniProt P05106+P06756); assay: Vitronectin adhesion assay (solid phase receptor assay, competition with biotinylated vitronectin); format: binding
T1 construct: Human vitronectin receptor(αv β3) was purified from human placenta; from tissue; host or cells: human placenta
Description: Human vitronectin receptor(αv β3) was purified from human placenta as previously described [Pytela et al., Methods in Enzymology, 144:475-489 (1987)]. Human vitronectin was purified from fresh frozen plasma as previously described [Yatohgo et al., Cell Structure and Function, 13:281-292 (1988)]. Biotinylated human vitronectin was prepared by coupling NHS-biotin from Pierce Chemical Company (Rockford, Ill.) to purified vitronectin as previously described [Charo et al., J. Biol. Chem., 266(3):1415-1421 (1991)]. Assay buffer, OPD substrate tablets, and RIA grade BSA were obtained from Sigma (St. Louis, Mo.). Anti-biotin antibody was obtained from Calbiochem (La Jolla, Calif.). Linbro microtiter plates were obtained from Flow Labs (McLean, Va.). ADP reagent was obtained from Sigma (St. Louis, Mo.). This assay was essentially the same as previously reported [Niiya et al., Blood, 70:475-483 (1987)]. The purified human vitronectin receptor (αv β3) was diluted from stock solutions to 1.0 μg/mL in Tris-buffered saline containing 1.0 mM Ca^++, Mg^++, and Mn^++, pH 7.4 (TBS^+++). The diluted receptor was immediately transferred to Linbro microtiter plates at 100 μL/well (100 ng receptor/well). The plates were sealed and incubated overnight at 4° C. to allow the receptor to bind to the wells. All remaining steps were at room temperature. The assay plates were emptied and 200 μL of 1% RIA grade BSA in TBS^+++ (TBS^+++ /BSA) were added to block exposed plastic surfaces. Following a 2 hour incubation, the assay plates were washed with TBS^+++ using a 96 well plate washer. Logarithmic serial dilution of the test compound and controls were made starting at a stock concentration of 2 mM and using 2 nM biotinylated vitronectin in TBS^+++ /BSA as the diluent. This premixing of labeled ligand with test (or control) ligand, and subsequent transfer of 50 μL aliquots to the assay plate was carried out with a CETUS Propette robot; the final concentration of the labeled ligand was 1 nM and the highest concentration of test compound was 1.0×10^-4 M. The competition occurred for two hours after which all wells were washed with a plate washer as before. Affinity purified horseradish peroxidase labeled goat anti-biotin antibody was diluted 1:3000 in TBS^+++ /BSA and 125 μL were added to each well. After 30 minutes, the plates were washed and incubated with OPD/H2 O2 substrate in 100 mM/L Citrate buffer, pH 5.0. The plate was read with a microtiter plate reader at a wavelength of 450 nm and when the maximum-binding control wells reached an absorbance of about 1.0, the final A450 were recorded for analysis. The data were analyzed using a macro written for use with the EXCEL™ spreadsheet program. The mean, standard deviation, and %CV were determined for duplicate concentrations. The mean A450 values were normalized to the mean of four maximum-binding controls (no competitor added) (B-MAX). The normalized values were subjected to a four parameter curve fit algorithm [Rodbard et al., Int.

[2] = biological target: T2, Human fibrinogen receptor (αIIb β3) (Homo sapiens, UniProt P05106+P08514); assay: Purified IIb/IIIa receptor assay (solid phase receptor assay, competition with biotinylated vitronectin); conditions: inhibition of 50% of maximum binding of 1 nM biotinylated vitronectin; 2 h competition, room temperature, TBS+++ pH 7.4
T2 construct: Human fibrinogen receptor (αIIb β3) was purified from outdated platelets; from tissue; host or cells: outdated platelets (human)
Excerpt: Human fibrinogen receptor (αIIb β3) was purified from outdated platelets. (Pytela, R., Pierschbacher, […]., Suzuki, S., and […] acid adhesion receptors", Methods in Enzymology 144(1987):475-489.) Human vitronectin was purified from fresh frozen plasma as described in Yatohgo, T., Izumi, M., Kashiwagi, H., and Hayashi, M., "Novel purification of vitronectin from human plasma by heparin affinity chromatography," Cell Structure and Function 13(1988):281-292. Biotinylated human vitronectin was prepared by coupling NHS-biotin from Pierce Chemical Company (Rockford, Ill.) to purified vitronectin as previously described. (Charo, […]., Phillips, D. R., Hsu, M. A., Scarborough, R. M., "Inhibition of fibrinogen binding to GP IIb/IIIa by a GP IIIa peptide", J. Biol. Chem. 266(3) (1991): 1415-1421.) Assay buffer, OPD substrate tablets, and RIA grade BSA were obtained from Sigma (St. Louis, Mo.). Anti-biotin antibody was obtained from Calbiochem (La Jolla, Calif.). Linbro microtiter plates were obtained from Flow Labs (McLean, Va.). ADP reagent was obtained from Sigma (St. Louis, Mo.). This assay is essentially the same reported in […]., Bader, R., Byers-Ward, […]., Plow, E. F. and Ruggeri, Z. M., "Increased surface expression of the membrane glycoprotein IIb/IIIa complex induced by platelet activation: Relationships to the binding of fibrinogen and platelet aggregation", Blood 70(1987):475-483. The purified human fibrinogen receptor (αIIb β3) was diluted from stock solutions to 1.0 μg/mL in Tris-buffered saline containing 1.0 mM Ca^++, Mg^++, and Mn^++, pH 7.4 (TBS^+++). The diluted receptor was immediately transferred to Linbro microtiter plates at 100 μL/well (100 ng receptor/well). The plates were sealed and incubated overnight at 4° C. to allow the receptor to bind to the wells. All remaining steps were at room temperature. The assay plates were emptied and 200 μL of 1% RIA grade BSA in TBS^+++ (TBS^+++ /BSA) were added to block exposed plastic surfaces. Following a 2 hour incubation, the assay plates were washed with TBS^+++ using a 96 well plate washer. Logarithmic serial dilution of the test compound and controls were made starting at a stock concentration of 2 mM and using 2 nM biotinylated vitronectin in TBS^+++ /BSA as the diluent. This premixing of labeled ligand with test (or control) ligand, and subsequent transfer of 50 μL aliquots to the assay plate was carried out with a CETUS Propette robot; the final concentration of the labeled ligand was 1 nM and the highest concentration of test compound was 1.0×10^-4 M. The competition occurred for two hours after which all wells were washed with a plate washer as before. Affinity purified horseradish peroxidase labeled goat anti-biotin antibody was diluted 1:3000 in TBS^+++ /BSA and 125 μL were added to each well. After 30 minutes, the plates were washed and incubated with […]/H2 O2 substrate in 100 mM/L citrate buffer, pH 5.0. The plate was read with a microtiter plate reader at a wavelength of 450 nm and when the maximum-binding control wells reached an absorbance of about 1.0, the final A450 were recorded for analysis. The data were analyzed using a macro written for use with the EXCELTM spreadsheet program. The mean, standard deviation, and %CV were determined for duplicate concentrations. The mean A450 values were normalized to the mean of four maximum-binding controls (no competitor added) (B-MAX). The normalized values were subjected to a four parameter curve fit algorithm, [Robard et al., Int.

[3] = inhibition of 50% of maximum binding of 1 nM biotinylated vitronectin, 2 h competition, room temperature, TBS+++ pH 7.4, read-out: AVB3 IC50

Compound | IC50 [1, 3] [nM] | IC50 [2] [nM] | IC50 ([1]; positive control included on each plate, stated range, read-out: αv β3 antagonist IC50 (positive control)) [nM]
2-[3-[[[[3-[(aminoiminomethyl)amino]phenyl]carbonyl]amino]methyl]phenyl]cyclopropanecarboxylic acid, trifluoroacetate salt [Example 3] | 923 | 5280 | –
N=C(N)NCCCCC(=O)NCC(=O)NC(CC(=O)O)c1cccnc1 (stereo not drawn) [β-[[2-[[5-[(aminoiminomethyl)amino]-1-oxopentyl]amino]-1-oxoethyl]amino]-3-pyridinepropanoic acid, reference compound] | – | – | 3 to 10
NC(=O)N=C(N)Nc1cccc(C(=O)Nc2ccc(C3CC3C(=O)O)cc2)c1 (stereo not drawn) [Example 8, 2-[4-[[[3-[(amino[(aminocarbonyl)imino]methyl]amino]phenyl]carbonyl]amino]phenyl]cyclopropanecarboxylic acid, trifluoroacetate salt] | 1380 | 13100 | –

Next, values leading:

IC50 [1, 3] [nM] | IC50 [2] [nM] | IC50 ([1]; positive control included on each plate, stated range, read-out: αv β3 antagonist IC50 (positive control)) [nM] | Compound
81.1 | 2890 | – | COc1cc(NC(=O)c2cccc(NC(=N)N)c2)ccc1C1CC1C(=O)O (stereo not drawn) [Example 5, 2-[4-[[[3-[(aminoiminomethyl)amino]phenyl]carbonyl]amino]-2-methoxyphenyl]cyclopropanecarboxylic acid, trifluoroacetate salt]
30.5 | 533 | – | N=C(N)Nc1cccc(C(=O)Nc2ccc(C3CC3C(=O)O)cc2)c1 (stereo not drawn) [Example 2, 2-[4-[[[3-[(aminoiminomethyl)amino]phenyl]carbonyl]amino]phenyl]cyclopropanecarboxylic acid, trifluoroacetate salt]
122 | 9700 | – | N=C(N)Nc1cc(C(=O)Nc2ccc(C3CC3C(=O)O)cc2)cc(C(F)(F)F)c1 (stereo not drawn) [Example 6, 2-[4-[[[3-[(aminoiminomethyl)amino]-5-(trifluoromethyl)phenyl]carbonyl]amino]phenyl]cyclopropanecarboxylic acid, trifluoroacetate salt]
525 | 3650 | – | CCOC(=O)C1CC1c1ccc(NC(=O)c2cccc(NC(=N)N)c2)cc1 (stereo not drawn) [Example 1, ethyl 2-[4-[[[3-[(aminoiminomethyl)amino]phenyl]carbonyl]amino]phenyl]cyclopropanecarboxylate, monohydrate trifluoroacetate salt]
19 | 4800 | – | O=C(Nc1ccc(C2CC2C(=O)O)cc1)c1cccc(NC2=NCCCN2)c1 (stereo not drawn) [Example 7, 2-[4-[[[3-[(1,4,5,6-tetrahydropyrimidin-2-yl)amino]phenyl]carbonyl]amino]phenyl]cyclopropanecarboxylic acid, trifluoroacetate salt]
